Patent US12415785B2, “Compound modulators of sting” (CTXT PTY LTD, priority 2019, dated 2025)

Experiments:
[1] = biological target: WT human STING isoform (THP-1-Dual KI-hSTING-R232 cells) (Homo sapiens (Human), UniProt Q86WV6, H232R); experiment: THP-1-Dual KI-hSTING-R232 reporter cell line assay; assay type: cell-based; conditions: 24 h incubation, QUANTI-Luc luminescence
Procedure: THP-1 STING Lucia ISG cells (InvivoGen #thpI-isg) were cultured in RPMI-1640 containing 2 mM L-glutamine, 25 mM HEPES, 100 μg/mL Normocin (InvivoGen) and 10% heat-inactivated FBS. Cells were seeded at a density of 7×10^5 cells/mL, maintained at 37° C./5% CO2, and passaged every 3-4 days. Selection pressure was maintained by the addition of 100 μg/mL Zeocin every second passage.
Assay conditions: cells were harvested and resuspended at a concentration of 5×10^5 cells/mL in fresh growth media. Of this cell preparation 20 μL per well was dispensed into 384 well cell culture plates (Greiner, #781098X) and incubated at 37° C./5% CO2 for 2 hours. Concentration Response Curves (commonly 11 doses) were prepared by 2.5 fold serial dilution starting from 10 mM compound stock solution in DMSO. Compound dilutions were transferred into the cell culture plates using a pintool (0.1 μL transfer), control wells were matched for DMSO. Positive control wells received ML RR—S2 CDA (Med Chem Express HY12885B) in 5 μL of media to a final concentration of 40 μM. All other wells received additional 5 μL of media only to equalise volume. The plates were incubated for 24 h at 37° C./5% CO2.
For the detection step, QUANTI-Luc (InvivoGen #rep-qlc1) was prepared according to manufacturer's instruction and 10 μL were added per well to the culture plates. Plates were shaken for ten seconds on an orbital shaker and left in the dark at room temperature for two minutes, before luminescence was read on a Perkin Elmer Envision plate reader.
Data analysis: Luminescence raw data was normalised % activity relative to the signal of the positive control wells and negative control wells which were not treated with compound. The following formula was used to calculate normalised % activity from raw signals: % activity=(sample−negative)/(positive−negative)
The THP-1 STING Lucia ISG cell EC50 provides an assessment of activity at the human HAQ isoform of STING. For assessing compound activity against the WT human STING isoform, an equivalent method was conducted where the cells used were THP-1-Dual KI-hSTING-R232 (InvivoGen #thpd-r232).

human STING (WT) = human STING (WT) (Homo sapiens (Human), UniProt Q86WV6, H232R); experiment: Differential scanning fluorimetry (DSF), huSTING (WT); assay type: binding; conditions: 2 μM protein, compound 100 μM; Tm with ligand minus Tm of protein alone (1% DMSO); read-out: DSF huSTING (WT) ΔTm (° C.)
human STING (WT), sequence (Q86WV6 other isoform, or with tags, fused parts or gaps, stated change not applied): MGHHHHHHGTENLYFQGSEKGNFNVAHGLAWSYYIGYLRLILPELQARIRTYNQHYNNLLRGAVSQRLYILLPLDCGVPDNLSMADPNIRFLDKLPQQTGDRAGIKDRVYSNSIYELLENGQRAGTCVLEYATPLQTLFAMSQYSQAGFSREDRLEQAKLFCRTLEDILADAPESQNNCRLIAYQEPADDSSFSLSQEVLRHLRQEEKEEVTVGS
Procedure: Biophysical experiments were performed with three different recombinant human STING protein variants designated according to allelic nomenclature of Yi et al., (2013). […] These were ligated into a modified pET43a E. coli expression vector designed to encode N-terminal His tag followed by tobacco etch virus protease (TEV) cleavage site and a STING gene sequence. The resulting protein sequences for the three allelic variants are listed below: […] Cultures were then cooled to 16° C. and protein expression induced by the addition of isopropyl β-D-1-thiogalactopyranoside to a final concentration of 0.5 mM and the cultures shaken overnight for further 16 hours. Following expression, cell cultures were centrifuged at 5000×g for 20 min and cell pellet stored frozen at −70° C. Protein purification was initiated by thawing the cell pellet in Lysis buffer (25 mM Tris-HCl pH 8.0, 300 mM NaCl, 5 mM DTT, 2 mM MgCl2, 10 mM imidazole, 0.5 mg/ml lysozyme, benzonase endonuclease [EMD Millipore], 1 mM PMSF, complete protease inhibitor tablets EDTA-free [Roche]) using a ratio of 7 ml of buffer per 1 g of cells. Cells were further lysed by 3 passes through an ice cooled Avestin C5 cell crusher and then centrifuged at 48,000×g at 4° C. […] The IMAC column was then sequentially washed with IMAC Wash buffer 1 and IMAC Wash buffer 2 (25 mM Tris-HCl pH 8.0, 300 mM NaCl, 5 mM DTT, 20 mM Imidazole) and bound His-TEV-hSTING protein eluted with IMAC Elution buffer (25 mM Tris-HCl pH 8.0, 300 mM NaCl, 5 mM DTT, 250 mM Imidazole). […] Differential scanning fluorimetry (DSF) is a rapid screening method for identifying low-molecular-weight ligands that bind and, in doing so, stabilize (or sometimes destabilize) purified proteins (Niesen 2007). DSF monitors thermal unfolding of protein in the presence of a fluorescent dye and is typically performed using a real-time PCR instrument. The temperature at which a protein unfolds is measured by an increase in the fluorescence of a dye with affinity for hydrophobic parts of the protein that are gradually being exposed during unfolding. The fluorescence of the dye is quenched in aqueous environments, but when the dye associates with hydrophobic sites on unfolded protein, its fluorescence increases. The fluorescence intensity is plotted as a function of the temperature, generating a sigmoidal curve that can be described by a two-state transition. The inflection point of the transition curve (Tm) is calculated using simple equations such as that of Boltzmann. Thermal stability of STING protein (with and without bound ligand) was measured using previously described methodology (Seabrook & Newman, 2013), with samples tested in triplicate using 96-well PCR microplate (AB Gene, ABGAB-0600/W). […] Sealed plates were placed into Bio-Rad CFX96/C1000 thermocycler and FRET scanning mode (λ^excitation of 490 nm and reads at a λ^emission of 570 nm). Melting curves were recorded from 20° C. to 100° C. in 0.5° C. increments every 30 seconds with a read at each increment. Data were analysed using “Meltdown analysis” protocol described by Rosa (2015).

WT human STING isoform (THP-1-Dual KI-hSTING-R232 cells), sequence (Q86WV6 whole entry H232R, canonical isoform): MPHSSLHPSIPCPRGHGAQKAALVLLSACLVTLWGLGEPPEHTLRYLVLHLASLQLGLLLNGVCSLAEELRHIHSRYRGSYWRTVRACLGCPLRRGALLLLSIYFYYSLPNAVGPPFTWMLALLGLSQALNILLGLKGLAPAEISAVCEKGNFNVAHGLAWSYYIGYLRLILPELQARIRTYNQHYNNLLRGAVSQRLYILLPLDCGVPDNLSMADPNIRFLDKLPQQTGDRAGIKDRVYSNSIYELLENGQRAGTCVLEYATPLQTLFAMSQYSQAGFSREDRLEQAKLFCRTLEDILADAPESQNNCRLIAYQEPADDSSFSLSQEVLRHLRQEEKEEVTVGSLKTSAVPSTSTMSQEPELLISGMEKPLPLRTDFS

Structure (SMILES)	EC50 [1] [µM]	ΔTm at 100 µM (human STING (WT)) [°C]
COc1c(C(N)=O)cc(F)c2c1nc(-c1c(F)cc(F)cc1C(=O)O)n2CCn1c(-c2c(F)cc(F)cc2C(=O)O)nc2c(OC)c(C(N)=O)cc(F)c21 [Example 18, 2,2′-(Ethane-1,2-diylbis(5-carbamoyl-7-fluoro-4-methoxy-1H-benzo[d]imidazole-1,2-diyl))bis(3,5-difluorobenzoic acid)]	0.566	2.4
COc1c(C(N)=O)cc(F)c2c1nc(-c1ccc(Cl)cc1C(=O)O)n2CCn1c(-c2ccc(Cl)cc2C(=O)O)nc2c(OC)c(C(N)=O)cc(F)c21 [Example 20, 6,6′-(Ethane-1,2-diylbis(5-carbamoyl-7-fluoro-4-methoxy-1H-benzo[d]imidazole-1,2-diyl))bis(3-chlorobenzoic acid)]	2.78	-3
COC(=O)c1c(Br)cccc1-c1nc2c(OC)c(C(N)=O)ccc2n1CCn1c(-c2cccc(Br)c2C(=O)OC)nc2c(OC)c(C(N)=O)ccc21 [Example 21, Dimethyl 6,6′-(ethane-1,2-diylbis(5-carbamoyl-4-methoxy-1H-benzo[d]imidazole-1,2-diyl))bis(2-bromobenzoate)]	1.63	2.33
COc1c(C(N)=O)ccc2c1nc(-c1ccc(Cl)cc1-c1cn[nH]n1)n2CCn1c(-c2ccc(Cl)cc2-c2cn[nH]n2)nc2c(OC)c(C(N)=O)ccc21 [Example 24, 1,1′-(Ethane-1,2-diyl)bis(2-(4-chloro-2-(2H-1,2,3-triazol-4-yl)phenyl)-4-methoxy-1H-benzo[d]imidazole-5-carboxamide)]	4.19	-3.16
COc1c(C(N)=O)ccc2c1nc(-c1ccc(C)cc1C(=O)O)n2CCn1c(-c2ccc(C)cc2C(=O)O)nc2c(OC)c(C(N)=O)ccc21 [Example 25, 6,6′-(Ethane-1,2-diylbis(5-carbamoyl-4-methoxy-1H-benzo[d]imidazole-1,2-diyl))bis(3-methylbenzoic acid)]	3.2	-18.4
COc1c(C(N)=O)ccc2c1nc(-c1cc(C)ccc1C(=O)O)n2CCn1c(-c2cc(C)ccc2C(=O)O)nc2c(OC)c(C(N)=O)ccc21 [Example 26, 2,2′-(Ethane-1,2-diylbis(5-carbamoyl-4-methoxy-1H-benzo[d]imidazole-1,2-diyl))bis(4-methylbenzoic acid)]	3.22	1.13
COc1c(C(N)=O)ccc2c1nc(-c1cnccc1C(=O)O)n2CCn1c(-c2cnccc2C(=O)O)nc2c(OC)c(C(N)=O)ccc21 [Example 30, 3,3′-(Ethane-1,2-diylbis(5-carbamoyl-4-methoxy-1H-benzo[d]imidazole-1,2-diyl))diisonicotinic acid]	28.9	0.29
COc1c(C(N)=O)ccc2c1nc(-c1ncc(Cl)cc1C(=O)O)n2CCn1c(-c2ncc(Cl)cc2C(=O)O)nc2c(OC)c(C(N)=O)ccc21 [Example 31, 2,2′-(Ethane-1,2-diylbis(5-carbamoyl-4-methoxy-1H-benzo[d]imidazole-1,2-diyl))bis(5-chloronicotinic acid)]	> 40	0.18
COc1c(C(N)=O)ccc2c1nc(-c1ccc(Cl)cc1-c1noc(=O)[nH]1)n2CCn1c(-c2ccc(Cl)cc2-c2noc(=O)[nH]2)nc2c(OC)c(C(N)=O)ccc21 [Example 32, 1,1′-(Ethane-1,2-diyl)bis(2-(4-chloro-2-(5-oxo-4,5-dihydro-1,2,4-oxadiazol-3-yl)phenyl)-4-methoxy-1H-benzo[d]imidazole-5-carboxamide)]	29.7	0.51
CCc1ccc(-c2nc3c(OC)c(C(N)=O)ccc3n2CCn2c(-c3ccc(CC)cc3C(=O)O)nc3c(OC)c(C(N)=O)ccc32)c(C(=O)O)c1 [Example 33, 6,6′-(Ethane-1,2-diylbis(5-carbamoyl-4-methoxy-1H-benzo[d]imidazole-1,2-diyl))bis(3-ethylbenzoic acid)]	> 40	1.17
COc1c(C(N)=O)ccc2c1nc(-c1ccc(Cl)cc1C(=O)O)n2C/C=C/Cn1c(-c2ccc(Cl)cc2C(=O)O)nc2c(OC)c(C(N)=O)ccc21 [Example 34, (E)-6,6′-(But-2-ene-1,4-diylbis(5-carbamoyl-4-methoxy-1H-benzo[d]imidazole-1,2-diyl))bis(3-chlorobenzoic acid)]	> 40	-2.39
COc1c(C(N)=O)ccc2c1nc(-c1ccc(Cl)cc1C(=O)O)n2CCCn1c(-c2ccc(Cl)cc2C(=O)O)nc2c(OC)c(C(N)=O)ccc21 [Example 35, 6,6′-(Propane-1,3-diylbis(5-carbamoyl-4-methoxy-1H-benzo[d]imidazole-1,2-diyl))bis(3-chlorobenzoic acid)]	> 40	-2.51
COc1c(C(N)=O)ccc2c1nc(-c1cccc(Br)c1C(=O)O)n2CCn1c(-c2cccc(Br)c2C(=O)O)nc2c(OC)c(C(N)=O)ccc21 [Example 36, 6,6′-(Ethane-1,2-diylbis(5-carbamoyl-4-methoxy-1H-benzo[d]imidazole-1,2-diyl))bis(2-bromobenzoic acid)]	> 40	2.04
COc1c(C(N)=O)ccc2c1nc(-c1ccc(Cl)c(Cl)c1-c1nn[nH]n1)n2CCn1c(-c2ccc(Cl)c(Cl)c2-c2nn[nH]n2)nc2c(OC)c(C(N)=O)ccc21 [Example 37, 1,1′-(Ethane-1,2-diyl)bis(2-(3,4-dichloro-2-(2H-tetrazol-5-yl)phenyl)-4-methoxy-1H-benzo[d]imidazole-5-carboxamide)]	> 40	-0.24
COc1c(C(N)=O)ccc2c1nc(-c1ccc(C(F)(F)F)cc1C(=O)O)n2CCn1c(-c2ccc(C(F)(F)F)cc2C(=O)O)nc2c(OC)c(C(N)=O)ccc21 [Example 38, 6,6′-(Ethane-1,2-diylbis(5-carbamoyl-4-methoxy-1H-benzo[d]imidazole-1,2-diyl))bis(3-(trifluoromethyl)benzoic acid)]	> 40	0.38
COc1c(C(N)=O)ccc2c1nc(-c1cccc(Cl)c1-c1nn[nH]n1)n2CCn1c(-c2cccc(Cl)c2-c2nn[nH]n2)nc2c(OC)c(C(N)=O)ccc21 [Example 40, 1,1′-(Ethane-1,2-diyl)bis(2-(3-chloro-2-(2H-tetrazol-5-yl)phenyl)-4-methoxy-1H-benzo[d]imidazole-5-carboxamide)]	> 40	-7.45
